The values below come from PubChem BioAssay AID1645848.

In brackets after ≈: the same amount, converted by molar mass.

By solubility (kinetic) is commonly meant solubility judged after dilution from a stock solution rather than from solid.

The conditions of the data set: buffer; pH 7.4; 6.0 h; 150.0 µM.

`CNC(=O)C1CCN(C(=O)c2ccc(-c3ncc4cnc(-c5ccccc5)cn34)cc2)CC1` registered a kinetic solubility of 40.8 µg/mL (≈ 92.7 µM).
`Cc1ccc(Nc2nc(-c3ccncc3)nc3ccccc23)cc1F` returned a solubility (kinetic) of less than 1 µg/mL.
The value for `CNC(=O)Cn1cc(-c2ccc3c(c2)C(F)CC32NC(=O)N(CC(=O)N(Cc3ccc(F)cc3)[C@@H](C)C(F)(F)F)C2=O)cn1` (stereo partly specified) was 22 µg/mL (≈ 35.5 µM); that for `CCN(CC)S(=O)(=O)c1cccc(C(=O)Nc2ccc(C#N)cc2)c1` was 10.2 µg/mL (≈ 28.5 µM); that for `N#C/C(=C\c1ccc(Sc2ccc(Cl)cc2)o1)c1nc2ccccc2[nH]1` was less than 1 µg/mL.
On to `COc1ccc(-n2nc(C)c([C@@H]3C=C[C@@H](NCc4cccc(Cl)c4)C3)c2C)cc1`, for which the kinetic solubility worked out at 46.2 µg/mL (≈ 113 µM).
For `O=C(NC1CC1)c1nc(-c2cccnc2)c2cnccn12`, the kinetic solubility was 31.6 µg/mL (≈ 113 µM).
In turn, `COc1ccc(O)c2c(=O)c3c(OC)cc4c(c3oc12)C1C=COC1O4` (stereo unspecified) displayed a solubility (kinetic) of less than 1 µg/mL.
For `COc1ccc(-n2nc3c(N4CCCC(C(=O)NCCc5ccc(C)cc5)C4)nnc(C)c3c2C)cc1` (stereo unspecified), the solubility (kinetic) turned out to be 4.04 µg/mL (≈ 8.1 µM).
`CCOC(=O)N1CCN(Cc2nc3c(c(=O)n(C)c(=O)n3C)n2Cc2cccc(C)c2)CC1` showed a solubility (kinetic) greater than 67 µg/mL.
Regarding `COc1cc(C2c3c(oc4cc(C)c(C)cc4c3=O)C(=O)N2CCCN2CCOCC2)ccc1O` (stereo unspecified), the kinetic solubility is greater than 71 µg/mL.
`CN(C)CCOc1ccc(/C(=C(/CCCl)c2ccccc2)c2ccccc2)cc1`: the kinetic solubility was less than 1 µg/mL.
The value for `CC[C@@H]1C(=O)N(C)c2cnc(Nc3ccc(C(=O)NC4CCN(C)CC4)cc3OC)nc2N1C1CCCC1` was greater than 77 µg/mL.
Turning to `COc1ccc(-c2cc(-c3cccc(NC(C)=O)c3)cn3cncc23)cn1`, the kinetic solubility came to 6.93 µg/mL (≈ 19.3 µM).
`O=C1CCCC2=C1C(c1[nH]ncc1Cl)N=C(Nc1nc3c(Cl)cccc3o1)N2` (stereo unspecified) displayed a kinetic solubility of 1.83 µg/mL (≈ 4.39 µM).
The result for `Cc1ccc(S(=O)(=O)Nc2cnccc2C(=O)NCCc2ccccc2)cc1` reads greater than 58 µg/mL.
With `COc1cc(NC(=O)c2nc3ccccc3n(C)c2=O)cc(OC)c1OC`, the kinetic solubility was determined as 7.16 µg/mL (≈ 19.4 µM).
The value for `Nc1ncnc2c1c(-c1ccc(Oc3ccccc3)cc1)cn2C1CCCC1` was less than 1 µg/mL.
`Cc1ccc(S(=O)(=O)Nc2ccc(C(=O)Nc3ncc(-c4ccccc4)s3)cc2)cc1`: the kinetic solubility is less than 1 µg/mL.
In the case of `CC(=O)c1ccc(N2CCN(S(=O)(=O)c3cc4c(cc3Cl)NC(=O)C4)CC2)cc1`, the solubility (kinetic) is 1.16 µg/mL (≈ 2.68 µM).
In turn, `O=C(Nc1ccc(OC(F)(F)Cl)cc1)c1cnc(N2CC[C@@H](O)C2)c(-c2ccn[nH]2)c1` gave a solubility (kinetic) of 14.6 µg/mL (≈ 32.4 µM).
The molecule `Cn1ncnc1[C@H]1c2n[nH]c(=O)c3cc(F)cc(c23)N[C@@H]1c1ccc(F)cc1` returned a kinetic solubility greater than 38 µg/mL.
The result for `COc1ccc2[nH]cc(CCNC(=O)c3cnn(-c4ccc(C)cc4)c3C3CCN(C(=O)OC(C)(C)C)CC3)c2c1` reads 1.56 µg/mL (≈ 2.8 µM).
The value for `Cc1ccc(NC(=O)C(Cc2ccccc2)NS(=O)(=O)c2cccs2)cc1Cl` (stereo unspecified) was less than 1 µg/mL; that for `CCCCCn1c(=O)[nH]c2cc(C(=O)NCCCN3CCCCC3)ccc2c1=O` was greater than 59 µg/mL; that for `CCCNC(=O)c1ccc2c(c1)ncn2-c1cc(C)cc(C)c1` was less than 1 µg/mL.
The molecule `COc1ccccc1C(=O)Nc1ccccc1C(=O)Nc1cccc(SC(F)(F)F)c1` yielded a kinetic solubility of less than 1 µg/mL.
On to `O=C(Oc1ccc[nH]c1=O)c1cc([N+](=O)[O-])cc([N+](=O)[O-])c1`, for which the solubility (kinetic) was greater than 45 µg/mL.
Take `O=S(=O)(Nc1nccs1)c1ccc(NCc2cccc(Cl)c2O)cc1`: the kinetic solubility is 46.1 µg/mL (≈ 117 µM).
As to `CCCCC(C)/C=C(C)/C=C(\C)C(=O)NC1=CC(O)(/C=C/C=C/C=C/C(=O)NC2=C(O)CCC2=O)C2OC2C1=O` (stereo unspecified), the kinetic solubility was greater than 81 µg/mL.
The result for `CCCc1cc(C)[nH]c(=O)c1CNC(=O)c1cc(-c2ccc(N3CCN(C(C)C)CC3)nc2)cc2c1cnn2C(C)C` reads 41.1 µg/mL (≈ 72.1 µM).
The result for `COc1cc(NS(=O)(=O)c2ccc(C)cc2)c(C(=O)Nc2nc(-c3ccccc3)cs2)cc1OC` reads less than 1 µg/mL; that for `COc1ccc(NC(=O)c2[nH]c(C)c(C(C)=O)c2C)cc1S(=O)(=O)N1CCCCC1`, 34.2 µg/mL (≈ 79 µM); that for `COC(=O)c1ccc(O)c2ncc(N3CCN(C)CC3)cc12`, greater than 30 µg/mL.
For the molecule `O=C(NC1CCCc2c1[nH]c1c(Cl)cccc21)c1ccc2c(c1)OCO2` (stereo unspecified), the kinetic solubility is less than 1 µg/mL.
`Cc1nnc(N2C(=O)c3oc4ccccc4c(=O)c3C2c2ccc(F)cc2)s1` (stereo unspecified) gave a solubility (kinetic) of less than 1 µg/mL.
On to `CCOc1ccc(CCNC(=O)c2cc3ccccc3n2C)cc1OCC`, for which the solubility (kinetic) was determined as 1.63 µg/mL (≈ 4.44 µM).
On to `Cc1ccc(NC(=O)c2c(N3CCCC3=O)c3cc(C)ccc3n2C)c(C)c1`, for which the solubility (kinetic) was less than 1 µg/mL.
`Cc1ccc(N2CCN(c3cnn(-c4nc5ccccc5s4)c(=O)c3Cl)CC2C)cc1` (stereo unspecified) had a solubility (kinetic) of less than 1 µg/mL.
`Nc1nc2c(s1)C(c1cccc(F)c1F)CC(=O)N2` (stereo unspecified) displayed a kinetic solubility of 8.33 µg/mL (≈ 29.6 µM).
The value for `COc1ccc(S(=O)(=O)Nc2cnccc2C(=O)Nc2nc(-c3ccccc3)cs2)cc1` was 54.1 µg/mL (≈ 116 µM); that for `CCOc1ccc(CCNC(=O)c2ccc(C3(C(F)(F)F)N=N3)cc2)cc1OCC` was less than 1 µg/mL; that for `CC(C)(C)OC(=O)N[C@@H](Cc1ccc(OS(=O)(=O)c2cccc3cnccc23)cc1)C(=O)N1CCCN(C(=O)OC(C)(C)C)CC1` was less than 1 µg/mL.
With `COc1ccccc1OCCNCC(O)COc1cccc2[nH]c3ccccc3c12` (stereo unspecified), the kinetic solubility was greater than 60 µg/mL.
`Cc1ccccc1C(=O)N1CCc2cc(-n3cc(NC(=O)Cc4ccccc4)cn3)ccc21` showed a solubility (kinetic) of less than 1 µg/mL.
`CCCCN(CC)CCNC(=O)c1cc2c(-c3ccc(Cl)cc3)nn(C)c2s1` returned a solubility (kinetic) greater than 62 µg/mL.
With `COC(=O)[C@]12CCC(C)(C)C[C@H]1[C@H]1C(=O)C=C3[C@@]4(C)C=C(C#N)C(=O)C(C)(C)[C@@H]4CC[C@@]3(C)[C@]1(C)CC2`, the solubility (kinetic) stood at 1.99 µg/mL (≈ 3.93 µM).
`Cc1cnc(-c2ccccc2C2COC2)nc1NCc1ccc(-c2cccnc2)cc1` registered a solubility (kinetic) greater than 60 µg/mL.
`CCOC(=O)c1nc(Nc2ccc(N3CCC(C)CC3)cc2)c2ccccc2n1` yielded a kinetic solubility of 2.18 µg/mL (≈ 5.59 µM).
For the molecule `O=C(Nc1ccc(F)cc1F)c1cc(-c2ccc[nH]2)n[nH]1`, the solubility (kinetic) was greater than 29 µg/mL.
`COC(=O)C1=COC(C)C2CN3CCc4c([nH]c5cc(OC)c(OC)cc45)C3CC12` (stereo unspecified) came in with a kinetic solubility of 46.9 µg/mL (≈ 114 µM).
For `Cc1ccc(-c2ccc(CNc3nc(-c4ccccc4C(C)C)ncc3F)cc2)cn1`, the kinetic solubility is less than 1 µg/mL.
The result for `COc1ccc(NC(=O)c2[nH]c(C)c(C(C)=O)c2C)cc1S(=O)(=O)Nc1ccc(C#N)cc1` reads 4.06 µg/mL (≈ 8.7 µM); that for `CCOc1ccccc1C(=O)NC1CCN(c2cc(C)cc(C)c2)C1=O` (stereo unspecified), 26.8 µg/mL (≈ 75.9 µM); that for `N#Cc1ccc(-c2ccc(CNc3ccc(C4CCNCC4)cc3)o2)cc1`, 35.2 µg/mL (≈ 98.6 µM).
Molecule `CC(=O)c1c(C)[nH]c(C(=O)Nc2cccc([S+](=O)([O-])Nc3ccccc3)c2)c1C` yielded a solubility (kinetic) of 2.16 µg/mL (≈ 5.24 µM).
In turn, `CCc1ccc2oc(=O)cc(CN3CCN(c4ccccc4F)CC3)c2c1` displayed a kinetic solubility of less than 1 µg/mL.
In turn, `Cc1ccc(NC(=O)CSc2ncc(S(=O)(=O)c3ccc(C(C)C)cc3)c(=O)[nH]2)cc1C` displayed a solubility (kinetic) greater than 70 µg/mL.
For `N#Cc1ccccc1Nc1ncc(-c2cccc3ccccc23)o1`, the solubility (kinetic) was less than 1 µg/mL.
Molecule `Cc1noc(C)c1C(=O)N1CCC2(CCCN(Cc3ccccc3)C2)CC1` returned a solubility (kinetic) of less than 1 µg/mL.
`CC(C)Oc1ccc(-c2ccc(=O)n(CC(=O)NCCc3ccccc3)n2)cc1` had a kinetic solubility of 16.8 µg/mL (≈ 43 µM).
`COc1cc(/C=C2\C(=O)Nc3ccccc32)ccc1O` showed a kinetic solubility of 15 µg/mL (≈ 56 µM).
The molecule `Fc1ccc(Nc2nc(-c3ccncc3)ncc2-c2ccccc2)cc1F` gave a solubility (kinetic) of less than 1 µg/mL.
Turning to `CNc1oc(-c2cccc3ccccc23)nc1C(=O)OC`, the solubility (kinetic) is less than 1 µg/mL.
Molecule `CN1C(=O)c2ccccc2[S@](=O)c2ccc(C(=O)NCCN3CCCC3)cc21` gave a kinetic solubility greater than 59 µg/mL.
For the molecule `CN1C(=O)CN=C(c2ccccc2Cl)c2cc(Cl)ccc21`, the solubility (kinetic) is greater than 47 µg/mL.
The result for `CCN1C(=O)c2ccccc2[S@](=O)c2ccc(C(=O)N[C@H](C)c3ccc4ccccc4c3)cc21` reads less than 1 µg/mL; that for `O=C(Nc1ccc(C(=O)Nc2nccs2)cc1)c1ccc2ccccc2c1`, less than 1 µg/mL.
Molecule `COc1ccc(NC(=O)C2=C(C)NC(Nc3nc4ccccc4o3)=NC2c2ccccc2Br)cc1` (stereo unspecified) registered a solubility (kinetic) of less than 1 µg/mL.
In turn, `CCOc1ccc(CCNC(=O)c2cc3cccnc3n2Cc2cccc(C)n2)cc1OCC` came in with a kinetic solubility of 43.8 µg/mL (≈ 95.4 µM).
`Cc1ccc(-c2cc(C(=O)Nc3ccccn3)c3ccccc3n2)cc1` displayed a solubility (kinetic) of less than 1 µg/mL.
`COc1ccc(NC(=O)c2cccnc2C)cc1S(=O)(=O)Nc1ccc(Br)cc1` displayed a solubility (kinetic) of 26.4 µg/mL (≈ 55.5 µM).
Molecule `Cc1cnc(-c2ccccc2C2COC2)nc1NCc1ccc(-n2ccnn2)cc1` gave a solubility (kinetic) greater than 59 µg/mL.
The molecule `Fc1ccc(CNc2cc3c(cn2)CN(Cc2ccncc2)CCN3)cc1` displayed a kinetic solubility of 36.6 µg/mL (≈ 101 µM).
`O=C1NCc2ccc(-c3cc4c(ccn4Cc4cccnc4)c(C4=CCOCC4)n3)cc21`: the kinetic solubility came to 54 µg/mL (≈ 128 µM).
`CCCn1cnc2cc(NCc3ccc(OC)cc3OC)ccc21` displayed a kinetic solubility of 40.3 µg/mL (≈ 124 µM).
With `O=C(Nc1nc(-c2ccccc2)cs1)c1ccncc1NS(=O)(=O)c1ccc(N2CCCC2=O)cc1`, the kinetic solubility came to 56.9 µg/mL (≈ 110 µM).
With `CCCCCCCc1c(C)nc(N2CCOCC2)[nH]c1=O`, the solubility (kinetic) was found to be 4.18 µg/mL (≈ 14.3 µM).
Consider `C=C1C(=O)O[C@@H]2[C@H]3O[C@]3(C)CC/C=C(\C)CC[C@@H]12`, for which the solubility (kinetic) worked out at 7.28 µg/mL (≈ 29.3 µM).
In turn, `Nc1ccccc1OCCn1c(CCNC(=O)C2CCCCC2)nc2ccccc21` showed a solubility (kinetic) of 44.5 µg/mL (≈ 109 µM).
Regarding `CN1CCN(c2ccc(Nc3nn4c(=O)c5ccccc5nc4s3)cc2)CC1`, the solubility (kinetic) was greater than 58 µg/mL.
For the molecule `O=C(NCCc1ccc(OCC(F)(F)F)c(OCC(F)(F)F)c1)c1cc2sccc2n1Cc1ccccc1`, the solubility (kinetic) is less than 1 µg/mL.
On to `O=C(/C=C/c1cn(CC(O)CN2CCCCCC2)c2ccccc12)c1ccc(Br)cc1` (stereo unspecified), for which the kinetic solubility is less than 1 µg/mL.
The result for `COc1cc2ncnc(Nc3ccc(Oc4ccccc4)cc3)c2cc1OC` reads less than 1 µg/mL; that for `NC(=O)C1CCN(c2ncc(-c3cccc(N4CCOCC4)c3)s2)CC1`, greater than 55 µg/mL; that for `Nc1nc(Nc2ccc(S(N)(=O)=O)cc2)n(C(=S)Nc2c(F)cccc2F)n1`, less than 1 µg/mL.
